Data taken from publication PMC12689647, “Evaluation of bromadiolone combined with ciprofloxacin, vitamin D, aspirin, and cinnamon as an apoptosis-mediated rodenticide strategy” (Scientific Reports, 2025).
Read-outs that look alike come from different tables or passages of the source.

Columns and labels:
[1] = system: p21; experiment: Western blot of liver tissue, p21; type: in vivo, Rattus norvegicus; conditions: Western blot normalized to β-actin, oral, 21 days
Protocol: (§1) Adult male rats (n = 7 × 9 = 63), weighing 150–200 g, were randomized and divided into seven groups. Group I served as the control. Group II received the vehicle control (0.1 ml/100 g ethanol). Group III was treated with bromadiolone (B) at ½ LD₅₀ (0.8 mg/kg)[28]. Group IV received bromadiolone (0.8 mg/kg) + ciprofloxacin (Anti.20 mg/kg)[29]. Group V received bromadiolone (0.8 mg/kg) + ciprofloxacin (20 mg/kg) + vitamin D (Vit. D 35 mg/kg)[30]. Group VI received bromadiolone (0.8 mg/kg) + ciprofloxacin (20 mg/kg) + vitamin D (35 mg/kg) + cinnamon (Cin. 2 g/kg)[31]. Group VII received bromadiolone (0.8 mg/kg) + ciprofloxacin (20 mg/kg) + vitamin D (35 mg/kg) + aspirin (A. 150 mg/kg)[32]. All doses were administered orally to wild rats over 21 days. The chemical we used for the euthanizing process: rats were narcotized by Ketamine + xylazine injection (IP) and then sacrificed by slaughtering.
For the immunodetection and quantification of proteins such as p21 and cleaved caspase-3, markers of apoptotic cell death under various treatments, liver tissue was homogenized using RIPA lysis buffer. The samples were chopped and briefly sonicated on ice, and protein concentration was measured. Proteins (20 µg) were separated using SDS-PAGE and transferred to a nitrocellulose membrane. […] The optical densities of the bands were quantified and normalized to β-actin (1:5000) using ImageJ software.

[2] = system: p53; experiment: Immunohistochemical detection of p53 in liver sections; type: in vivo, Rattus norvegicus; conditions: liver immunohistochemistry; oral, 21 days
Protocol: as §1
Using xylene, paraffin-embedded tissues were deparaffinized and then rehydrated through a graded series of ethanol solutions. Antigen retrieval was performed by boiling the slides in 1 mM EDTA. The sections were then incubated in 3% H2O2 for ten minutes, washed with wash buffer (1X PBS) for five minutes, and blocked for one hour at room temperature. A 1:1000 dilution of the p53 primary antibody was then applied. […]

[3] = system: male wild rats; experiment: Serum measurements (AST, ALT, Ca2+, RBCs, Hgb, PT); type: in vivo, Rattus norvegicus; conditions: oral, 21 days
Protocol: as §1
(§2) Determination of ionized calcium, RBC count, Hb, and prothrombin time (PT) was conducted at a private biochemical laboratory in Assiut, Egypt, using a Genuri KT-6400 automatic hematology analyzer (China). ALT and AST activities in blood plasma were measured using specific kits (Boehringer Mannheim, Mannheim, Germany) according to the manufacturer’s instructions. […]. The concentration of reduced glutathione (GSH) was estimated based on[37] and measured using spectrophotometry.

[4] = system: liver of male wild rats; experiment: Hepatic lipid peroxidation (LPO) and reduced glutathione (GSH); type: in vivo, Rattus norvegicus; conditions: oral, 21 days
Protocol: as §1, §2

[5] = system: liver of male wild rats; experiment: Semi-quantitative scoring of histopathological lesions in the liver (H&E); type: in vivo, Rattus norvegicus; set-up: key to Fatty deposition / Hemorrhage / Thickening of blood vessels / Loss of liver architecture: (-) Absent lesion; (+) Slight (< 25%); (++) Moderate (from 25–50%); (+++) Severe (> 50%); conditions: liver H&E lesion score; oral, 21 days
Protocol: as §1
. Hematoxylin, eosin stains was applied to 5 μm-thick paraffin Sect[38]. Four categories were established based on the histological evaluation of nine liver tissue lesions: (−) no lesion, (+) mild (less than 25%), (++) moderate (between 25% and 50%), and (+++) severe (more than 50%)[39]. We examined about 5 photos for each rat in each groups; 5 × 63 = 315 photos for assessments. Examination and photography were conducted using a digital camera (ToupTek ToupView, copyright 2019, version x86, compatible with Windows XP/Vista/7/8/10, China) and a light microscope (Olympus CX31, Japan).

[6] = system: male wild rats of Rattus norvegicus; type: in vivo; conditions: oral, 8 treated, one week
[7] = system: male wild rats of Rattus norvegicus; type: in vivo; conditions: oral

O=c1oc2ccccc2c(O)c1C(CC(O)c1ccc(-c2ccc(Br)cc2)cc1)c1ccccc1 (stereo not drawn) [Bromadiolone]
increase in p21 level compared to the control [1]: 96.65% | increase in p53 levels compared to the control [2]: 60.74% | p53 immunoreactivity in liver sections [2]: moderate brown immunoreactivity | Ca2+ serum, Mean ± SE ([3]; control 4.640 ± 0.2943): 13.15 ± 0.9675 mg/dL | RBCs serum, Mean ± SE ([3]; control 11.08 ± 0.1956): 8.240 ± 0.5015 M/µl | Hgb serum, Mean ± SE ([3]; control 11.92 ± 0.3813): 11.4 ± 0.2358 g/dL | PT (prothrombin time) serum, Mean ± SE ([3]; control 21.25 ± 2.212): 37.43 ± 1.329 s | AST serum, Mean ± SE ([3]; control 92.37 ± 5.279): 130.8 ± 8.149 U/L | ALT serum, Mean ± SE ([3]; control 184.8 ± 4.632): 225.5 ± 1.679 U/L | LPO, Mean ± SE ([4]; control 1.458 ± 0.1402): 1.660 ± 0.1817 nmol/ mg protein | GSH, Mean ± SE ([4]; control 10.42 ± 0.4500): 6.953 ± 0.1538 ng/mg protein | Cellular infiltration [5]: ++ ((++) Moderate (from 25–50%)) | Congested blood vessels [5]: ++ ((++) Moderate (from 25–50%)) | Dilated blood sinusoids [5]: + ((+) Slight (< 25%)) | Fatty deposition [5]: - | Features of necrosis: Karyolysis [5]: + ((+) Slight (< 25%)) | Features of necrosis: Karyorrhexis [5]: + ((+) Slight (< 25%)) | Features of necrosis: Pyknosis [5]: ++ ((++) Moderate (from 25–50%)) | Hemorrhage [5]: - | Loss of liver architecture [5]: - | Necrotic areas [5]: + ((+) Slight (< 25%)) | Thickening of blood vessels [5]: - | Vacuolated cytoplasm [5]: ++ ((++) Moderate (from 25–50%)) | Dead ([6]; dose 0.3 mg/kg b.w.): 1 | Dead ([6]; dose 0.6 mg/kg b.w.): 2 | Dead ([6]; dose 2.2 mg/kg b.w.): 5 | Observed response % ([7]; time 5 days): 50% | Observed response % ([7]; time 6 days): 62.5% | Linear probit ([7]; time 6 days, probit fit): 5.4393 | Linear response % ([7]; time 6 days, probit fit): 66.9788%
